Data: patent US8629127B2, “Compositions and methods of treatment for inflammatory diseases” (The Board of Regents of the University of Oklahoma, priority 2004, dated 2014)

What was measured:
DSS-induced colitis = assay: Histological assessment of DSS-induced colitis; assay type: in vivo, rat; conditions: DSS colitis (4% DSS, 4 days); 4-day intracolonic treatment; maximal score 12
Excerpt: Male Sprague Dawley rats (200-250 grams) were housed in cages containing contact bedding. Rats were deprived of food for 24 hrs prior to the induction of colitis, but were allowed free access to water throughout the experiment. Institutional approval for experimental protocols was provided by the research and animal care committees of the research services at the Oklahoma City Veterans Administration Medical Center. Colitis was induced by oral administration of a 4% solution of DSS (dextran sulfate sodium) in drinking water for 4 days. […] Animals received treatment for 4 days. Macroscopic indices of colonic injury were scored and tabulated. Histological features that were examined included epithelial damage and mucosal ulceration. Additional measures included determination of serum C-reactive protein (CRP) levels and cytokine gene expression in colonic tissues performed by ribonuclease protection assay (RPA). Colonic tissue samples taken from the initial segment were immersed in 10% phosphate buffered formalin and subsequently embedded in paraffin. Sections of 3 micron thickness were cut and stained with hematoxylin and eosin. The slides were then evaluated by a pathologist for epithelial damage, architectural changes, mononuclear infiltration, polymorphonuclear leukocyte (PMN) infiltration and ulceration. […]

IL-4 = assay: Cytokine gene expression in rat colon (RPA), TNBS colitis; assay type: in vivo; conditions: 11 days after TNBS, 8-day treatment
Method: (§1) Following a 24 hr fast, rats were lightly anesthetized using isoflurane followed by insertion of a polyethylene catheter into the anus. The tip of the catheter was advanced 8 cm proximal from the anus and a single dose of TNBS (Sigma, St. Louis, Mo.), dissolved in 50% ethanol, was injected through the cannula (15 mg dissolved in a 0.6 ml volume of 50% ethanol) to induce colitis. Following the administration of TNBS the animals were maintained in a head-down position for approximately 60 seconds to prevent leakage of the infusate. After 72 hrs, rats dosed initially with TNBS were randomly assigned to one of four treatment groups to receive daily intracolonic therapy in a manner similar to that used for TNBS administration. […] An additional group of rats (Group E) served as control and received saline per rectum on day 0 and at subsequent intervals that corresponded to treatment protocols. Rats were treated for either 5 or 8 days and then sacrificed by cervical dislocation. FIG. 1 illustrates the design of these experiments. Following the manufacturer's protocol, 1 ml of TRI Reagent (Sigma, St. Louis, Mo.) is used per 100 mg of tissue. The frozen tissue is placed into the TRI Reagent and immediately homogenized using a tissue macerator. The homogenates are transferred to microcentrifuge tubes and 0.2 ml of chloroform is added per ml of TRI Reagent used. The samples are shaken thoroughly and allowed to sit at room temp for 3 min. Samples were then centrifuged at 12000×g for 15 min at […]. After centrifugation, the upper aqueous phase was transferred to a new tube and […] of 2-propanol is added to precipitate the RNA. After sitting at room temp for 10 min. the samples are centrifuged at 12000×g for 15 min. The supernatants are discarded and the pellets are washed in 70% ethanol followed by centrifugation at 12000×g for 5 min. The ethanol was removed and the pellets are dissolved in 50 μl of DEPC treated water per sample. Quantitation is performed by spectrophotometry at 260 nm and 280 nm. RPA analysis was performed with RiboQuant™ multi-probe RNase protection assay system (BD Biosciences-Pharmingen, San Diego, Calif.). To 20 μg of total RNA in 8 μl of hybridization buffer and 2 μl of ^32P-labeled in vitro transcribed RNA probes were added. The probes were transcribed from the multiprobe template set rCK-1 which as a panel of probes against IL-1a, IL-1b, IL-3, IL-5, IL-10, IL-2, TNFα, TNBβ, GAPDH genes. Probes were prepared according to the manufactures protocol. The RNA samples containing labeled probes were incubated briefly at 90° C., slowly cooled to 56° C. and hybridized overnight at that temperature. The samples were then slowly cooled to 30° C. Thereafter, a mixture of RNases A and T1 was added to digest single-stranded RNA leaving the double-stranded RNA formed by the probes annealing to their cognate mRNAs intact. Following proteinase K digestion and phenol-chloroform extraction, the undigested double-stranded RNA was precipitated with ammonium acetate and ethanol. […] The ethanol was removed and the pellets were dissolved in 5 μl of formamide loading dye. The double-stranded RNAs were resolved on a 5% polyacrylamide/urea gel run in TBE buffer. After electrophoresis, the gel was dried at 80° C. under vacuum and then exposed to a PhosphorImager screen overnight. Detection and quantitation of the resolved bands on the gel were performed on a Storm PhosphorImager™ system (Amersham Biosciences, Piscataway, N.J.).

TNF-α = assay: as above; assay type: in vivo; conditions: 11 days after TNBS, 8-day treatment
Method: as §1

IL-1A = assay: as above; assay type: in vivo; conditions: 11 days after TNBS, 8-day treatment
Method: as §1

IL-1B = assay: as above; assay type: in vivo; conditions: 11 days after TNBS, 8-day treatment
Method: as §1

IL-6 = assay: as above; assay type: in vivo; conditions: 11 days after TNBS, 8-day treatment
Method: as §1

Myeloperoxidase activity = Myeloperoxidase activity in colon tissue, TNBS colitis; assay type: in vivo, rat; conditions: 11 days after TNBS; 8-day treatment
Method: Following a 24 hr fast, rats were lightly anesthetized using isoflurane followed by insertion of a polyethylene catheter into the anus. The tip of the catheter was advanced 8 cm proximal from the anus and a single dose of TNBS (Sigma, St. Louis, Mo.), dissolved in 50% ethanol, was injected through the cannula (15 mg dissolved in a 0.6 ml volume of 50% ethanol) to induce colitis. Following the administration of TNBS the animals were maintained in a head-down position for approximately 60 seconds to prevent leakage of the infusate. After 72 hrs, rats dosed initially with TNBS were randomly assigned to one of four treatment groups to receive daily intracolonic therapy in a manner similar to that used for TNBS administration. […] An additional group of rats (Group E) served as control and received saline per rectum on day 0 and at subsequent intervals that corresponded to treatment protocols. Rats were treated for either 5 or 8 days and then sacrificed by cervical dislocation. FIG. 1 illustrates the design of these experiments. Myeloperoxidase activity was used as an indirect measure of the severity of colonic inflammation by PMNs. […] C. The tissues were then removed from storage at −80° C. and allowed to thaw on ice. […] The absorbance changes were read at 450 nm and recorded. Results were expressed as ng/ml/g of tissue.

TNBS-induced colitis [1] = assay: Histological assessment of TNBS-induced colitis; assay type: in vivo, rat; conditions: for Cumulative (aggregate) microscopic colitis injury score: 8 days after TNBS, 5-day treatment, scale 0-15; for Decrease in aggregate microscopic injury score: 11 days after TNBS, 8-day treatment, vs TNBS alone
Excerpt: Male Sprague Dawley rats (200-250 grams) were housed in cages containing contact bedding. Rats were deprived of food for 24 hrs prior to the induction of colitis, but were allowed free access to water throughout the experiment. Institutional approval for experimental protocols was provided by the research and animal care committees of the research services at the Oklahoma City Veterans Administration Medical Center. Following a 24 hr fast, rats were lightly anesthetized using isoflurane followed by insertion of a polyethylene catheter into the anus. The tip of the catheter was advanced 8 cm proximal from the anus and a single dose of TNBS (Sigma, St. Louis, Mo.), dissolved in 50% ethanol, was injected through the cannula (15 mg dissolved in a 0.6 ml volume of 50% ethanol) to induce colitis. Following the administration of TNBS the animals were maintained in a head-down position for approximately 60 seconds to prevent leakage of the infusate. After 72 hrs, rats dosed initially with TNBS were randomly assigned to one of four treatment groups to receive daily intracolonic therapy in a manner similar to that used for TNBS administration. […] An additional group of rats (Group E) served as control and received saline per rectum on day 0 and at subsequent intervals that corresponded to treatment protocols. Rats were treated for either 5 or 8 days and then sacrificed by cervical dislocation. FIG. 1 illustrates the design of these experiments. Colonic tissue samples taken from the initial segment were immersed in 10% phosphate buffered formalin and subsequently embedded in paraffin. Sections of 3 micron thickness were cut and stained with hematoxylin and eosin. The slides were then evaluated by a pathologist for epithelial damage, architectural changes, mononuclear infiltration, polymorphonuclear leukocyte (PMN) infiltration and ulceration. The individual microscopic features of colitis were graded according to criteria noted in Table 2. In addition to scoring individual features of colitis, an aggregate score of colitis was tabulated by adding together individual scores, thus, providing a global assessment of colitis. [table]

TNBS-induced colitis [2] = assay: Macroscopic assessment of TNBS-induced colitis; assay type: in vivo, rat; conditions: scale 0-6
Excerpt: Male Sprague Dawley rats (200-250 grams) were housed in cages containing contact bedding. Rats were deprived of food for 24 hrs prior to the induction of colitis, but were allowed free access to water throughout the experiment. Institutional approval for experimental protocols was provided by the research and animal care committees of the research services at the Oklahoma City Veterans Administration Medical Center.
Following a 24 hr fast, rats were lightly anesthetized using isoflurane followed by insertion of a polyethylene catheter into the anus. The tip of the catheter was advanced 8 cm proximal from the anus and a single dose of TNBS (Sigma, St. Louis, Mo.), dissolved in 50% ethanol, was injected through the cannula (15 mg dissolved in a 0.6 ml volume of 50% ethanol) to induce colitis. Following the administration of TNBS the animals were maintained in a head-down position for approximately 60 seconds to prevent leakage of the infusate. After 72 hrs, rats dosed initially with TNBS were randomly assigned to one of four treatment groups to receive daily intracolonic therapy in a manner similar to that used for TNBS administration. […] An additional group of rats (Group E) served as control and received saline per rectum on day 0 and at subsequent intervals that corresponded to treatment protocols. Rats were treated for either 5 or 8 days and then sacrificed by cervical dislocation. FIG. 1 illustrates the design of these experiments.
Upon sacrifice, the distal 8 cm of the colon was removed, opened by a longitudinal incision and rinsed with phosphate buffered saline to remove fecal material. Macroscopic assessment of colitis was carried out by an independent observer who was unaware of the treatment groups. Inflammation was present if the mucosa was erythematous. Ulceration of the mucosa was defined as a distinct break or interruption of the mucosa. Once macroscopic damage was assessed full thickness colonic tissue samples were taken from the inflamed areas and either processed for histology or snap frozen in liquid nitrogen for subsequent cytokine measurement and determination of myeloperoxidase (MPO) activity.

[3] = patients with inflammatory bowel disease; cited from earlier work
[4] = 8 days after TNBS, 5-day intracolonic treatment, 5-ASA 100 mg/kg, NAC 40 mM
[5] = 11 days after TNBS, 8-day intracolonic treatment

Row | SMILES | Aggregate microscopic injury score (DSS-induced colitis) | IL-4 gene expression, Mean ± SEM (IL-4) [Relative O.D units] | TNF-α gene expression, Mean ± SEM (TNF-α) [Relative O.D units] | IL-1A gene expression, Mean ± SEM (IL-1A) [Relative O.D units] | IL-1B gene expression, Mean ± SEM (IL-1B) [Relative O.D units] | IL-6 gene expression, Mean ± SEM (IL-6) [Relative O.D units] | Reduction of MPO activity below TNBS values (Myeloperoxidase activity) [%] | Cumulative (aggregate) microscopic colitis injury score (TNBS-induced colitis [1]) | Decrease in aggregate microscopic injury score (TNBS-induced colitis [1]) [%] | Macroscopic injury score (TNBS-induced colitis [2]; [4]) | Macroscopic injury score (TNBS-induced colitis [2]; [5]) | Patients who cannot tolerate this medication (side effects) [3]
1 | Nc1ccc(O)c(C(=O)O)c1 [5-ASA, 5-aminosalicylic acid] | 4.1±0.9 | 1.40 ± 0.25 | 1.25 ± 0.12 | 1.33 ± 0.18 | 11.49 ± 2.54 | 0.79 ± 0.22 | 32 | 9.0±0.9 | 46 | 3.0±0.7 | 1.8±0.2 | 
2 | CC(=O)N[C@@H](CS)C(=O)O [NAC, N-acetylcysteine] | 4.0±1.1 | 1.20 ± 0.26 | 1.04 ± 0.017 | 1.28 ± 0.16 | 11.88 ± 1.0 | 0.76 ± 0.14 | 40 | 9.0±1.8 | 53 | 4.1±0.6 | 1.2±0.2 | 
3 | O=C(O)c1cc(/N=N/c2ccc(S(=O)(=O)Nc3ccccn3)cc2)ccc1O [sulfasalazine] |  |  |  |  |  |  |  |  |  |  |  | up to one third
